Patent publication US20240376120A1, “CAMPTOTHECIN COMPOUND, PREPARATION METHOD THEREFOR AND USE THEREOF” (priority 2021, published 2024)
Read-outs that look alike come from different tables or passages of the source.

Key:
Format in all cases: cell-based
Conditions in all cases: Homo sapiens, read-out: Proliferation inhibition IC50
[1] = system: MCF-7 cells (human breast cancer cells); assay: MCF-7 cell proliferation inhibitory assay (CellTiter-Glo)
Protocol: • 1). […] Resuspend an appropriate amount of cell suspension to 4000 cells/100 μL according to the count, mixed well and then put the corresponding number of cells into a 96-well plate by pipette. • 3). Each hole of the edge was sealed with 100 μL DPBS and put into an incubator for culture. • 4). Day 1 drug addition: Prepare the storage solution of the compound to be tested 1 hour in advance. 24 h after plating, the culture medium was gradiently diluted to a concentration twice the final concentration of each group. Take out the plated cells from the incubator and add 100 μL of the corresponding 2-fold concentration medium to each well by pipette.
Day 1 detected: Take out the plate to be tested and an appropriate amount of CTG in advance and rewarm it at room temperature in the dark. 50 μL of CTG was added to each well at 24 h. Shake with the oscillator for 5 minutes, and after balancing in the dark for 5 minutes, detect the luminescence value with a microplate reader; The mixture was shaken for 5 min, and after equilibration in the dark for 5 min, the luminescence value was detected with ELISA. • 6). Day 4 detection: Take an appropriate amount of CTG 1 h in advance and rewarm it at room temperature in the dark. At the same time, take out the plate to be tested from the incubator and leave it to equilibrate at room temperature for 30 minutes; 72 h after adding the drug, 100 μL of culture medium was sucked out with pipette carefully from each cell well, and 50 μL of CTG was added. The mixture was shaken for 5 min, and after equilibration in the dark for 5 min, the luminescence value was detected with ELISA analyzer. • 7). Data analysis and processed.
Collect data and convert it into survival rate: Inhibition rate (%)=(100−(OD value of compound-OD value on the first day)/(OD value of control well-OD value on the first day))×100%
(§1) Input the compound into graphpad prism to obtain the corresponding IC50 value.

[2] = system: MDA-MB-231 cells (human breast cancer cells); assay: MDA-MB-231 cell proliferation inhibitory assay (CellTiter-Glo)
Protocol: (§2) • 1). […] Resuspend an appropriate amount of cell suspension to 3000 cells/100 μL according to the count, mixed well and then put the corresponding number of cells into a 96-well plate by pipette. • 3). Each hole of the edge was sealed with 100 μL DPBS and put into an incubator for culture. • 4). Day 1 drug addition: Prepare the storage solution of the compound to be tested 1 hour in advance. 24 h after plating, the culture medium was gradiently diluted to a concentration twice the final concentration of each group. Take out the plated cells from the incubator and add 100 μL of the corresponding 2-fold concentration medium to each well by pipette. • 5). Day 1 detected: Take out an appropriate amount of CTG 1 h in advance and the plate was allowed to equilibrate at room temperature for 30 min. 100 μL of CTG was added to each well and shaken for 5 mins, and then standed in the dark for 5 mins, the luminescence value was detected by ELISA. • 6). Day 4 detection: Take an appropriate amount of CTG 1 h in advance and rewarm it at room temperature in the dark. At the same time, take out the plate to be tested from the incubator and leave it to equilibrate at room temperature for 30 minutes; 72 h after adding the drug, 100 μL of culture medium was sucked out with pipette carefully from each cell well, and 100 μL of CTG was added. The mixture was shaken for 5 min, and after equilibration in the dark for 5 min, the luminescence value was detected with ELISA. • 7). Analyze data and write detailed experimental records.
as §1

[3] = system: MDA-MB-435s cells (human melanoma cells); assay: MDA-MB-435s cell proliferation inhibitory assay (CellTiter-Glo)
Protocol: as §2
Collect data and convert it into survival rate: Inhibition rate (%)=(100−(OD value of compound−OD value on the first day)/(OD value of control well-OD value on the first day))×100%
as §1

Structure (SMILES) | IC50 ([1]; MCF7, 72 h) | IC50 ([2]; MDA-MB-231, 72 h) | IC50 ([3]; MDA-MB-435S, 72 h) | IC50 ([1]; MCF7, MCF-7 cells, 72 h after adding the drug, Table 1) | IC50 ([2]; MDA-MB-231 cells, 72 h after adding the drug, Table 2) | IC50 ([3]; MDA-MB-435s cells, 72 h after adding the drug, Table 3)
CC[C@@]1(O)C(=O)OCc2c1cc1n(c2=O)Cc2c-1nc1cc(F)c(C)cc1c2[C@H](C)NC(=O)C1(O)CC1 [Example 16] | 12.3 nM | 100 nM | 8.2 nM |  |  | 
CC[C@@]1(O)C(=O)OCc2c1cc1n(c2=O)Cc2c-1nc1cc(F)c(C)cc1c2[C@H](C)NC(=O)[C@@H](O)C1CC1 [Example 17] | 7.8 nM | 96.7 nM | 6.3 nM |  |  | 
CC[C@@]1(O)C(=O)OCc2c1cc1n(c2=O)Cc2c-1nc1cc(F)c(C)cc1c2[C@H](C)NC(=O)[C@H](O)C(F)(F)F [Example 18] | 11.3 nM | 150 nM | 10.3 nM |  |  | 
CC[C@@]1(O)C(=O)OCc2c1cc1n(c2=O)Cc2c-1nc1cc(F)c(C)cc1c2[C@H](C)NC(=O)[C@@H](O)C(F)(F)F [Example 19] | 15.2 nM | 261 nM | 15.3 nM |  |  | 
[2H]C([2H])(O)C(=O)N[C@@H](C)c1c2c(nc3cc(F)c(C)cc13)-c1cc3c(c(=O)n1C2)COC(=O)[C@]3(O)CC [Example 20] | 7.8 nM | 120 nM | 2.7 nM |  |  | 
CC[C@@]1(O)C(=O)OCc2c1cc1n(c2=O)Cc2c-1nc1cc(F)c(C)cc1c2[C@H](C)NC [Example 21] | 4.2 nM | 20.2 nM | 1.2 nM |  |  | 
CC[C@@]1(O)C(=O)OCc2c1cc1n(c2=O)Cc2c-1nc1cc(F)c(C)cc1c2[C@H](C)N(C)C [Example 22] | 9.3 nM | 60.8 nM | 5.6 nM |  |  | 
[2H]C([2H])([2H])c1cc2c([C@H](C)N)c3c(nc2cc1F)-c1cc2c(c(=O)n1C3)COC(=O)[C@]2(O)CC [Example 23] | 2.5 nM | 7.7 nM | 0.76 nM |  |  | 
CC[C@@]1(O)C(=O)OCc2c1cc1n(c2=O)Cc2c-1nc1cc(F)c(C)cc1c2[C@H](C)[N+](C)(C)C [Example 24] | 10.2 nM | 80.1 nM | 6.6 nM |  |  | 
CC[C@@]1(O)C(=O)OCc2c1cc1n(c2=O)Cc2c-1nc1cc(F)c(C)cc1c2[C@H](C)NCCO [Example 25] | 30.2 nM | 261 nM | 10.2 nM |  |  | 
CC[C@@]1(O)C(=O)OCc2c1cc1n(c2=O)Cc2c-1nc1cc(F)c(C)cc1c2[C@H](C)NCCN(C)C [Example 25a] | 25.6 nM | 40.2 nM | 6.3 nM |  |  | 
CC[C@@]1(O)C(=O)OCc2c1cc1n(c2=O)Cc2c-1nc1cc(F)c(C)cc1c2[C@@H](C)NCCN(C)C [Example 25b] | 35.1 nM | 60.9 nM | 9.6 nM |  |  | 
CC[C@@]1(O)C(=O)OCc2c1cc1n(c2=O)Cc2c-1nc1cc(F)c(C)cc1c2[C@H](C)NCCNC [Example 25c] | 15.3 nM | 35.6 nM | 3.3 nM |  |  | 
CC[C@@]1(O)C(=O)OCc2c1cc1n(c2=O)Cc2c-1nc1cc(F)c(C)cc1c2[C@@H](C)NCCNC [Example 25d] |  |  |  | 22.3 nM | 50.3 nM | 5.2 nM
CC[C@@]1(O)C(=O)OCc2c1cc1n(c2=O)Cc2c-1nc1cc(F)c(C)cc1c2[C@H](C)NC(=O)C1CCCCC1O (stereo partly drawn) [Example 26] | 35.2 nM | 150 nM | 5.6 nM |  |  | 
CC[C@@]1(O)C(=O)OCc2c1cc1n(c2=O)Cc2c-1nc1cc(F)c(C)cc1c2[C@@H](C)NS(C)(=O)=O [Example 26a] | 13.3 nM | 89.2 nM | 2.8 nM |  |  | 
CC[C@@]1(O)C(=O)OCc2c1cc1n(c2=O)Cc2c-1nc1cc(F)c(C)c(C)c1c2[C@H](C)N [Example 29a] | 4.5 nM | 10 nM | 2.1 nM |  |  | 
CC[C@@]1(O)C(=O)OCc2c1cc1n(c2=O)Cc2c-1nc1cc(F)c(C)c(C)c1c2[C@@H](C)N [Example 29b] | 2.1 nM | 6.6 nM | 0.72 nM |  |  | 
